Some results are limits rather than exact numbers.

For experiment [1], the system named is Pseudomonas aeruginosa (ATCC 27853). Kind of experiment: Checkerboard titration / micro-dilution antimicrobial synergy evaluation (MIC, FIC). In kind it is cell-based.
Method: The combinations having an FIC index of ≦0.5 are considered synergistic while a FIC index of >0.5 but ≦1 are considered partially synergistic.
First, potential antimicrobial synergy in a composition having a combination of EDTA and NAC components was investigated with respect to the Pseudomonas aeruginosa (ATCC 27853) microorganism.
According to this method the stock solutions are prepared having a concentration equivalent or higher than twice the MIC of the components among which synergy is to be tested.
As the solutions get turbid, a higher optical density values generated. Generally speaking, increased turbidity, and thus higher optical density readings, are indicative of the presence of micro organisms in the solution. During analysis of the samples, optical density measurements above a predetermined cutoff value is indicative that there are microorganisms present in the solutions or samples, and are thus characterized by positive growth (+), while optical density readings which fall below the cutoff value can be characterized by negative growth (−). A number of the OD measurements were made (OD1, OD2, OD3), and the mean value calculated.
The test system of experiment [2] is clot formation in normal anticoagulated plasma. As to the kind of experiment: Prothrombin time (PT) assay, PT converted to INR. Particulars: ISI 1.65. Format: biochemical, human.
Method: The Prothrombin Time (PT) Assay primarily measures the time required for the clot formation in a test sample. Per the assay, the test samples first mixed with normal anticoagulated plasma in a ratio of 1:9 and incubated for 2 minutes at Room temperature. Then tissue thromboplastin with calcium ions is added to the test samples. The samples are then incubated for 2 minutes at 37° C. Tissue thromboplastin and calcium ions is added to normal anticoagulated plasma mixed with formulation, to initiate the clotting mechanism leading to formation of a fibrin clot. The coagulation analyzer is utilized to record the PT required for clot formation. The PT so obtained is then converted to International Normalized Ratio (INR) by utilizing the following formula:
INR=(PTTest Sample/PTControl Level 1)^ISI;
wherein ISI (International Sensitivity Index)—indicates the sensitivity of individual thromboplastin. The value of ISI utilized in the anticoagulant investigations reported herein is 1.65.
If the deficiency exists within coagulation pathway (for example test blood contains heparin or other anticoagulant) the time required for clot formation will be prolonged. Any INR values ≧ that of abnormal plasma level 2 (e.g., TriniCHECK™ Level 2; Trinity Biotech) are considered indicative of deficiency within the coagulation pathway, and thus indicative of highly anticoagulative properties. Any INR values higher than 5.5 are considered indicative of highly anticoagulant behavior. Therefore, the strength of an anticoagulant can be characterized by the INR value, i.e., the larger the INR value the stronger the anticoagulant properties.

Take `O=C([O-])CN(CCN(CC(=O)[O-])CC(=O)O)CC(=O)O.[Na+].[Na+]` [DEDTA, disodium EDTA]: the MIC in experiment [1] is 0.25 wt %. Besides, the INR is on record as 16.7 in experiment [2] (4 wt % DEDTA alone) and over 233 in experiment [2] (at 8 wt %).
Regarding `CC(=O)N[C@@H](CS)C(=O)O` [NAC, N-Acetyl Cysteine], the MIC in experiment [1] amounted to 0.25 wt %. In experiment [2] (at 8 wt %), the INR is reported as over 26.

For the origin of these results see US20100022652A1, “Antimicrobial and Anticoagulant Compositions and Methods” (Tyco Healthcare Group LP, priority 2008, published 2010).
